Activity calls are given as the source filed them.

Series [1] has as its target Benomyl/methotrexate resistance protein (Candida albicans, UniProt P28873). The series can be described thus: CaMdr1 efflux pump inhibitor potency, dose response, singleplex, Cherry Pick1 hits (AID 588608). The series is classed as functional.
Series [2] addresses Multidrug resistance protein CDR1 (Candida albicans, UniProt P43071). Put plainly: CaCDR1 efflux pump inhibitors in yeast, dose response, S. cerevisiae AD1-8u, singleplex, Cherry Pick1 hits (AID 588606). The series is classed as functional.
Series [3] deals with Protein disulfide-isomerase (Homo sapiens, UniProt P07237). The series can be described thus: PDI inhibitors, insulin aggregation turbidity, dose response, biochemical, absorbance, cherry-picked samples (AID 602350). Format: functional.
Series [4] in a line: Luminescence Cell-Based Dose Response HTS to Identify Inhibitors of Luciferase Translation or Activity in H4-C Neuroglioblastoma Cells. [Related pubchem assays: 1813 (Primary HTS), 1827 (Project Summary)]. Format: functional.
Series [5] is described as follows: Luminescence Cell-Based Dose Response HTS to Identify Activators of Luciferase Translation or Activity in H4-C Neuroglioblastoma Cells. [Related pubchem assays: 1829 (Project Summary), 1814 (Primary HTS)]. The series is classed as functional.
Series [6] in a line: inhibitors of firefly luciferase expression or activity, dose response, H4 neuroglioma cells, luminescence (AID 1990). Format: functional, cell-based.
Series [7] in a line: luciferase reporter signal reduction – luminescence, H4-C neuroglioblastoma cells, dose response (AID 2458).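 Also: H4 neuroglioblastoma cells stably carrying a luciferase reporter gene fusion.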 The series is classed as functional, cell-based. In general terms: In a reporter assay the amount or activity of a reporter protein is the signal.
Series [8] in a line: Luminescence Cell-Based Dose Response HTS to Identify Activators of 5'UTR Stem-Loop Driven Prion Protein mRNA Translation in H4-C Neuroglioblastoma Cells. [Related pubchem assays: 1829 (Project Summary), 1814 (Primary HTS)]. Format: functional.
A short description of series [9]: Luminescence Cell-Based Dose HTS Response to Identify Inhibitors of 5'UTR Stem-Loop Driven Prion Protein mRNA Translation in H4-C Neuroglioblastoma Cells. [Related pubchem assays (depositor defined):AID1814, AID1827]. The series is classed as functional.
The subject of series [10] is BJ. The series can be described thus: cytotoxicity toward BJ-TERT fibroblasts, dose response, cell-based, RAS-independent, luminescence (AID 1933). Format: functional. The conditions noted are these: Homo sapiens.
The next series in a line: cells. Format: functional, cell-based.
Series [11] is described as follows: Luminescence Cell-Based Dose Response HTS to Identify Inhibitors of 5'UTR Stem-Loop Driven Prion Protein mRNA Translation in H4 Neuroglioblastoma Cells. [Related pubchem assays: 1827 (Project Summary), 1813 (Primary HTS)]. Format: functional.
Series [12] is described as follows: inhibitors of SNCA 5'UTR-driven reporter translation, confirmation, H4 neuroglioma cells, luminescence (AID 1988). Format: functional, cell-based.
In series [13] the test system is BJ. Put plainly: cells. The series is classed as functional, cell-based. Particulars: Homo sapiens.
The nature of series [14]: Luminescence Cell-Based Dose Confirmation HTS to Identify Inhibitors of 5'UTR Stem-Loop Driven Alpha-Synuclein mRNA Translation in H4 Neuroglioblastoma Cells. [Related pubchem assays: 1827 (Project Summary), 1813 (Primary HTS)]. The series is classed as functional.
Series [15] concerns BJ. Put plainly: cytotoxicity toward BJ-TERT-LT-ST fibroblasts, dose response, cell-based, RAS-independent, luminescence (AID 1935).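 Also: BJ fibroblasts immortalized with TERT plus LT and ST oncogenes.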 The series is classed as functional. The conditions noted are these: Homo sapiens.
The nature of series [16]: cytotoxicity toward DRD oncogenic fibroblasts, dose response, cell-based, non-viral oncogenic, luminescence (AID 1934). Format: functional. The conditions noted are these: Homo sapiens.
The nature of series [17]: inhibitors of SNCA 5'UTR-driven translation, confirmation, luminescence, H4 neuroglioblastoma cells, dose confirmation (AID 2454).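 Also: H4 neuroglioblastoma cells carrying an alpha-synuclein 5'UTR luciferase reporter; potency for inhibition of the luciferase signal.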 Format: functional, cell-based.
Series [18] has as its system BJ. Put plainly: cytotoxicity toward Ras-transformed BJeLR fibroblasts, dose response, cell-based, alamar blue fluorescence, cherrypicked samples (AID 2631).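 Also: confirmatory dose-response assay in RAS-dependent BJ fibroblasts engineered with TERT, LT and ST, with cytotoxicity read by fluorescence.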 Format: functional. Particulars: Homo sapiens. Background: The colour change of resazurin is a common sign of viable cells or microbes.
Series [19] addresses Beta-lactamase (Pseudomonas aeruginosa, UniProt Q79MP6).
Series [20] concerns the target Beta-lactamase (Salmonella choleraesuis (strain SC-B67), UniProt Q5J463).
The next series addresses ORF 73 (Human herpesvirus 8, UniProt O40947). The series can be described thus: inhibitors of C-LANA binding to LBS DNA, dose response, biochemical, fluorescence polarization, cherry-picked samples (AID 504725).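 Also: fluorescence polarization of a labeled DNA duplex reporting LANA DNA binding; potency is for inhibitors that block LANA binding to the DNA.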 Set-up: species or system Human gammaherpesvirus 8. Background: Polarisation of emitted light reports the rotation of a fluorescent probe.
For series [21], the target named is T1, Insulin-degrading enzyme (Homo sapiens, UniProt P14735). Put plainly: activators of recombinant IDE enzyme, dose response, counter-screen for IDE activator project, biochemical, fluorescence polarization (AID 588681).
For series [22], the target named is T1, Insulin-degrading enzyme. Put plainly: activators of endogenous IDE in HEK cells, dose response, cell-based, fluorescence polarization (AID 588439). Format: functional.
Series [23] deals with HEK293. The series can be described thus: HEK cell cytotoxicity by LDH release, dose response, cytotoxicity control for IDE activator project, fluorescence, HEK cells (AID 588440).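 Also: cytotoxicity by LDH release measuring loss of membrane integrity.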 Format: functional, cell-based. Particulars: Homo sapiens.
Series [24] deals with HEK293. Put plainly: optical interference in Abeta FP readout, dose response, artefact control for IDE activator project, biochemical, fluorescence polarization (AID 588442). Format: functional, cell-based. Particulars: Homo sapiens.
In a further series the target is Large T antigen (Simian virus 40, UniProt P03070). The series is classed as functional, Betapolyomavirus macacae.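 Also: Confirmatory-stage PubChem screen for compounds that inhibit SV40 T antigen.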
In series [25] the target is T2, DNA dC->dU-editing enzyme APOBEC-3A (Homo sapiens, UniProt P31941). Put plainly: APOBEC3A DNA deaminase inhibitors, dose response, biochemical (AID 504722). Format: functional.
The target in series [26] is T3, DNA dC->dU-editing enzyme APOBEC-3G (Homo sapiens, UniProt Q9HC16). Put plainly: Dose Response confirmation of small molecule APOBEC3G DNA Deaminase Inhibitors via a fluorescence-based single-stranded DNA deaminase assay. [Related pubchem assays (depositor defined):AID493012, AID493028]. Format: functional.
Series [27] has as its target T2, DNA dC->dU-editing enzyme APOBEC-3A. Put plainly: SAR analysis of small molecule inhibitors of APOBEC3A DNA Deaminase via a fluorescence-based single-stranded DNA deaminase assay - Set 2. The conditions noted are these: read-out: IC50_Mean. The series is classed as functional.
For series [28], the target named is T3, DNA dC->dU-editing enzyme APOBEC-3G. Put plainly: SAR analysis of small molecule inhibitors of APOBEC3G DNA Deaminase via a fluorescence-based single-stranded DNA deaminase assay - Set 2. Format: functional. The conditions noted are these: read-out: IC50_Mean.
For series [29] the target is unchanged. The series can be described thus: APOBEC3G deaminase inhibitors, SAR follow-up, biochemical, fluorescence, single-stranded DNA substrate (AID 602136). The series is classed as functional. The conditions noted are these: read-out: IC50_Mean.
Series [30] concerns the target T2, DNA dC->dU-editing enzyme APOBEC-3A. The series can be described thus: SAR analysis of small molecule inhibitors of APOBEC3A DNA Deaminase via a fluorescence-based single-stranded DNA deaminase assay. Format: functional. Particulars: read-out: IC50_Mean.
The target in the next series is DNA topoisomerase (Yersinia pestis, UniProt A0A2S9PM60). Put plainly: Y. pestis Topo-I inhibitors, cleavage product readout, dose response, biochemical, cherry-pick (AID 588525).
The target of the next series is Cytochrome P450 2D6 (Homo sapiens, UniProt P10635).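 Also: CYP2D6 member of a cytochrome P450 panel assay.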
The target in another series is Cytochrome P450 2C9 (Homo sapiens, UniProt P11712).
Series [31] is described as follows: THP-1 cell cytotoxicity, cytotoxicity control, set 4 (AID 504911). The series is classed as functional. Particulars: Mycobacterium tuberculosis.
Series [32] in a line: THP-1 cell cytotoxicity, cytotoxicity control, set 6 (AID 602433). The series is classed as functional. The conditions noted are these: Mycobacterium tuberculosis.
The nature of series [33]: THP-1 cell cytotoxicity, dose response, cytotoxicity control, set 3 (AID 504852). The series is classed as functional. The conditions noted are these: Mycobacterium tuberculosis.

T2 sequence (P31941 whole entry): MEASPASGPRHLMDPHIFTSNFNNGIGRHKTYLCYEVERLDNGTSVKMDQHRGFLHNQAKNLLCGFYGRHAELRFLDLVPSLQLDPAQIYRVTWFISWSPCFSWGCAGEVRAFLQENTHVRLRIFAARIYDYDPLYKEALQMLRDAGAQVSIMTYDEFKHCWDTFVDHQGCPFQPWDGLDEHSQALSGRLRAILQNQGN
T3 sequence (Q9HC16 whole entry): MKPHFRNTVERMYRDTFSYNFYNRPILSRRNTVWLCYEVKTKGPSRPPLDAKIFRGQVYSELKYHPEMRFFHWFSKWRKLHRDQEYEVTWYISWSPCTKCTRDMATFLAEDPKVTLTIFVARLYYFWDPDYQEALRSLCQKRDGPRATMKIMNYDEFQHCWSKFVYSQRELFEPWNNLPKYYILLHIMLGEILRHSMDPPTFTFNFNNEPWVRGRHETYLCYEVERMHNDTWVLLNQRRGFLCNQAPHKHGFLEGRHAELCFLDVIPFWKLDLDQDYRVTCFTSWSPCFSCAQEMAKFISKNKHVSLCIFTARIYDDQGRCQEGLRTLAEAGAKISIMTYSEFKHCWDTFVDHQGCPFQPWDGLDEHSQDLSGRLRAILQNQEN
T1 sequence (P14735 whole entry): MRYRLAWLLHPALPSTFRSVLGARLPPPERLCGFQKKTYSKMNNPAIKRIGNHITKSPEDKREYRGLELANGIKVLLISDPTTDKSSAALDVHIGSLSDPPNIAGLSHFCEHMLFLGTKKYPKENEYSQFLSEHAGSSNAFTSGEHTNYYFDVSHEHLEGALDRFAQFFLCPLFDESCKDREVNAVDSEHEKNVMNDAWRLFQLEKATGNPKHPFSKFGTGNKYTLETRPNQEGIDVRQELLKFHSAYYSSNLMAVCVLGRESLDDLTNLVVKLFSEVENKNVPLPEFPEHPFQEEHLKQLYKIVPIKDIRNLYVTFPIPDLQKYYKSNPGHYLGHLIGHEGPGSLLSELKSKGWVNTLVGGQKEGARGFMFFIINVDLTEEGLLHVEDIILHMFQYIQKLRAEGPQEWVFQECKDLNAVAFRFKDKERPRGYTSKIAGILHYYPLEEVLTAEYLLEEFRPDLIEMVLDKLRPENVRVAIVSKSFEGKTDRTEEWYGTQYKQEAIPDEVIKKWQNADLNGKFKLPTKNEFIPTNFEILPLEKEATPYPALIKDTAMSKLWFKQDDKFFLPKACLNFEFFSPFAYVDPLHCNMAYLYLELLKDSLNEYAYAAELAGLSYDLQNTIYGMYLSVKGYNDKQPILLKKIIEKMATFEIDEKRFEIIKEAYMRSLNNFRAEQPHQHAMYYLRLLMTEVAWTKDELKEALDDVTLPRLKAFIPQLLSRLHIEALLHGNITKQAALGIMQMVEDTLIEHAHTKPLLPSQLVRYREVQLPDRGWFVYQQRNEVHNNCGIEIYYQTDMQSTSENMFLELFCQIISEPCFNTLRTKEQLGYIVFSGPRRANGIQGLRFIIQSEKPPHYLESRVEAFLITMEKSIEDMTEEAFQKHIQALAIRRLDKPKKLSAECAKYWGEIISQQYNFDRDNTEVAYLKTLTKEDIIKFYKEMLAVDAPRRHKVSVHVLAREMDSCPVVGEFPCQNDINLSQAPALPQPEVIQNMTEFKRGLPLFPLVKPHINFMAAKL
Beta-lactamase (Pseudomonas aeruginosa, UniProt Q79MP6), sequence (Q79MP6 whole entry): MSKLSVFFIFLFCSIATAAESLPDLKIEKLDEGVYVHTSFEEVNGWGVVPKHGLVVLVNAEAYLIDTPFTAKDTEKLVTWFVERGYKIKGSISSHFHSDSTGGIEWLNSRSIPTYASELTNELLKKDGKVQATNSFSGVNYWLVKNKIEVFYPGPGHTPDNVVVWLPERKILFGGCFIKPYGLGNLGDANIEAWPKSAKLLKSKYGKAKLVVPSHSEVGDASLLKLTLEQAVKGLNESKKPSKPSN
Benomyl/methotrexate resistance protein, sequence (P28873 whole entry): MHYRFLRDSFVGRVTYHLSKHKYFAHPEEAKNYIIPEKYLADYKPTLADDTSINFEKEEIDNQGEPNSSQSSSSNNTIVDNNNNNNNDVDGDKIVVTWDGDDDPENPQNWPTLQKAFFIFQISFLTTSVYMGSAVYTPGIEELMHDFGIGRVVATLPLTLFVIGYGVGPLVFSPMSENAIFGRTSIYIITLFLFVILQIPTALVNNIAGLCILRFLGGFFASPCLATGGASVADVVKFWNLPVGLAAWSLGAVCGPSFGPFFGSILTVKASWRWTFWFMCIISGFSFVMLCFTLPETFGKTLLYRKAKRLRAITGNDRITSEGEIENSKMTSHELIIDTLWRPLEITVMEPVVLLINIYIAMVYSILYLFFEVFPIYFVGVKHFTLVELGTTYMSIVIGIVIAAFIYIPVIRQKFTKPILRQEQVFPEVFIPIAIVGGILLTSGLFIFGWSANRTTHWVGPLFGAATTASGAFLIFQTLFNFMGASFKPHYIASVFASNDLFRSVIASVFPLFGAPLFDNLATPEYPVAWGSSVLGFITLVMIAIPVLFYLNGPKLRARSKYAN
DNA topoisomerase, sequence (A0A2S9PM60 whole entry): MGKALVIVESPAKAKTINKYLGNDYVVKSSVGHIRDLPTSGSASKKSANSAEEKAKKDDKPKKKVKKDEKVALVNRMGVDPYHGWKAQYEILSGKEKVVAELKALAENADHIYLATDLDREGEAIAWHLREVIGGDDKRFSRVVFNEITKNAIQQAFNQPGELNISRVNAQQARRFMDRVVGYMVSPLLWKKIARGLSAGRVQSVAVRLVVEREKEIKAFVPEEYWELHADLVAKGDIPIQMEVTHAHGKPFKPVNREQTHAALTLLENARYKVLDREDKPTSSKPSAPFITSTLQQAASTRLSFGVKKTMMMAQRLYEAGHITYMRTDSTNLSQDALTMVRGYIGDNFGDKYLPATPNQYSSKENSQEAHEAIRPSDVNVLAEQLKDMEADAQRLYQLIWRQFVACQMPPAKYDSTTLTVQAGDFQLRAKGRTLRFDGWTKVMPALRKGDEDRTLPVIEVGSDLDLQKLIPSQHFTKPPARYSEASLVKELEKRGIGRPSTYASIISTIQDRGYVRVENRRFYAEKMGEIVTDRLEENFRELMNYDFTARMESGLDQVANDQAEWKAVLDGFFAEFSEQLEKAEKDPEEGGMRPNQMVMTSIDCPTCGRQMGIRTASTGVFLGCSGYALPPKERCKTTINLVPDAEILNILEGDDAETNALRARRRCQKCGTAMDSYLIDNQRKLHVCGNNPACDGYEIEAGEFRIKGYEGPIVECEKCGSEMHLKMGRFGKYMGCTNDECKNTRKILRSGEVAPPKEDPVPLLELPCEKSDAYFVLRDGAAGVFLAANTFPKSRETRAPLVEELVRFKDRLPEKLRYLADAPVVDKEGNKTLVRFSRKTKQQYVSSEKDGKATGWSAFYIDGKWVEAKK
Large T antigen, sequence (P03070 whole entry): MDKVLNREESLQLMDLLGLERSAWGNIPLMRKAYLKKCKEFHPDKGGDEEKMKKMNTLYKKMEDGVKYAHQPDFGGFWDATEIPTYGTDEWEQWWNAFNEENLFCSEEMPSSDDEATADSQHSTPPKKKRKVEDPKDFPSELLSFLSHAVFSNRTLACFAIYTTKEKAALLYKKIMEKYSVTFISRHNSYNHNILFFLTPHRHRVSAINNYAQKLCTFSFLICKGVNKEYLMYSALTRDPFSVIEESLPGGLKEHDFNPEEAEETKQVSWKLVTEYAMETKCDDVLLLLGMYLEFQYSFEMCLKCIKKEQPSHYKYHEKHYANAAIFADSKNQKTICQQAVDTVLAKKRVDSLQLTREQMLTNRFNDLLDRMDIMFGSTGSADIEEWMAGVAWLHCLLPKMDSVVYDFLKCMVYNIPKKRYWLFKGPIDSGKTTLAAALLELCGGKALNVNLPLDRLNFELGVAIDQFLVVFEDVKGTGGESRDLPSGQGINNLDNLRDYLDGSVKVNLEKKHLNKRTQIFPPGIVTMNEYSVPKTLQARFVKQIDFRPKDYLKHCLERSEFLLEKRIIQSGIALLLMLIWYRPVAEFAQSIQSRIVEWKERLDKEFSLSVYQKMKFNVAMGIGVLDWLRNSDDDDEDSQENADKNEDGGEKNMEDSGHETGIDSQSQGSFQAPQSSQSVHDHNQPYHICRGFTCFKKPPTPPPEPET
Beta-lactamase (Salmonella choleraesuis (strain SC-B67), UniProt Q5J463), sequence (Q5J463 whole entry): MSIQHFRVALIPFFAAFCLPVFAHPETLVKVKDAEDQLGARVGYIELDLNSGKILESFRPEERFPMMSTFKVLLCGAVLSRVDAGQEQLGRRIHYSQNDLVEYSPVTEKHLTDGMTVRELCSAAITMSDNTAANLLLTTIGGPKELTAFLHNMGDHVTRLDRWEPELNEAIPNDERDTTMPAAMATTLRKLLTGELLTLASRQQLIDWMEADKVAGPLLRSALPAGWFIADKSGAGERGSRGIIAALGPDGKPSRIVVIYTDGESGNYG
Cytochrome P450 2C9, sequence (P11712 whole entry): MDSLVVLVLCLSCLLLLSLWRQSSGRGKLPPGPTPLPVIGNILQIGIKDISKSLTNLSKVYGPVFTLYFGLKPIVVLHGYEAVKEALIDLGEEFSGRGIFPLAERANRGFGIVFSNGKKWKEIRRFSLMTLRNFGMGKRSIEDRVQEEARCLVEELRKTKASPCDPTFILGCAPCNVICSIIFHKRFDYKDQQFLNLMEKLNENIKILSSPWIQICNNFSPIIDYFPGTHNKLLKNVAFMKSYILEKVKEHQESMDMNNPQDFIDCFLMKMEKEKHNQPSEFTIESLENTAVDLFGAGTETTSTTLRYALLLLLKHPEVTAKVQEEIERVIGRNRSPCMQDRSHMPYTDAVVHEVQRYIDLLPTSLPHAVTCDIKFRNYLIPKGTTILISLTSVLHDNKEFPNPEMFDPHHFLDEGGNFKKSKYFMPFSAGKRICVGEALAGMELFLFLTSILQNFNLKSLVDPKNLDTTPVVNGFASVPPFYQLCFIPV

With `Cc1ccc(S(=O)(=O)N2CCOCC2)cc1NC(=O)COC(=O)CNC(=O)c1ccccc1`, the EC50 is 65 nM (active) in [1] and 18 nM (active) in series [2].
With `Cc1c(O)ccc2c(CC(=O)N[C@@H](Cc3c[nH]c4ccccc34)C(=O)O)cc(=O)oc12`, the AC50 in series [3] was 6760 nM (active).
Regarding `CCOC(=O)c1[nH]c(C)c(C(=O)N2CCc3ccccc32)c1C`, the EC50 was 1010 nM (active) in [4]; 630 nM (inconclusive) in series [5]; 4630 nM (inconclusive) in [6]; 1070 nM (active) in [7]; 353 nM (inconclusive) in [8]; 2330 nM (active) in [9]. In addition, the EC50 was 704 nM (inconclusive) in the series with BJ [10]; 1220 nM (active) in the series “cells”; 4650 nM (active) in series [11]; < 100 nM (active) in [12]; 10800 nM (active) in the series on BJ [13]; 2130 nM (active) in series [14]. The EC50 in the series on BJ [15] is 420 nM (inconclusive); in [16], 656 nM (active); in series [17], 1300 nM (active); with BJ [18] it was 252 nM (active).
`CCOc1ccc(/C=C2\CCCc3c2nc2ccccc2c3C(=O)O)cc1OC`: the IC50 is 53100 nM (inactive) at Beta-lactamase [19], 10900 nM (inactive) at Beta-lactamase [20] and > 89200 nM (inactive) in the series on HEK293 [23]. For the same molecule, on ORF 73, the AC50 was 908 nM (active). Also, the EC50 at Insulin-degrading enzyme [21] was > 54700 nM (inactive); on Insulin-degrading enzyme [22], > 54700 nM (inactive); in the series on HEK293 [24] it was 5380 nM (active).
On to `CCCCCn1c(=O)c2ccccc2n2c(S)nnc12`, for which the IC50 is 16800 nM (active) at Large T antigen; > 100000 nM (inactive) in series [25]; 1470 nM (active) in [26]; > 99000 nM (inactive) in [27]; 1600 nM (active) in [28]; 1200 nM (active) in series [29]. Further, the IC50 in [30] is > 99000 nM (inactive).
Regarding `Clc1cccc(CSc2nnc(-c3sccc3-n3cccc3)o2)c1`, the AC50 on DNA topoisomerase was 5150 nM (active); at Cytochrome P450 2D6 it was 398 nM (inconclusive); at Cytochrome P450 2C9, “inconclusive”.
As to `CC(C)CCNC(=O)CSc1nc(O)c2ccccc2n1`, the CC50 in series [31], in series [32] and in [33] was > 100000 nM (active) throughout.

What is called EC50 is the concentration giving half of the maximal effect. The AC50 is the midpoint of the concentration-response curve, whichever way the signal moves. One may read the CC50 as the concentration giving 50% cytotoxicity.

The record behind these values is ChEMBL document CHEMBL1201862, “PubChem BioAssay data set” (2004).
